Where “and” joins values, the source holds several entries; their conditions need not be identical. Equal values may be shown once.
Key:
[1] = molecular target: HSV-1 SC16 dThd kinase (Human herpesvirus 1, UniProt P06479); test: dThd kinase assay in vitro, enzyme extracts; format: biochemical, HSV-1 (strain SC16); settings: enzyme extracts of infected HeLa BU cells, 100 μM dThd
Method: (§1) Virus stocks. The viruses used were HSV-1 (strains KOS, SC16, B3 and Tr7) and HSV-2(strain 333). dThd kinase mutants of HSV (SC16), B3 and Tr7, were isolated in the presence of (E)-5-(2-bromovinyl)-2'-deoxyuridine (BVDU) at 10 μg/ml and ACV at 1 μg/ml, respectively (Darby, G., Field, H.J. & Salisbury, S. A. (1982) Nature (London) 289:81-83; Field, H.J & Neden J. (1982) Antiviral Res. 2:243254).
(§2) Enzyme purification, enzyme assays, IC50 and Ki determinations. The cellular cytosolic dThd kinase used to determine the Ki values was isolated from KB6B cells. The HSV-1 and HSV-2dThd kinases were extracted from dThd kinase-deficient HeLa BU cells infected with HSV-1 (strain KOS) and HSV-2(strain 333), respectively. All of the dThd kinases were purified using affinity column chromatography procedures described by Lee, L. S. and Cheng, Y.-C. (J. Biol. Chem. 251:2600-2604 (1976)). The dThd kinase assay used was the same as that described by Cheng, Y.-C. & Ostrander, M. (J. Biol. Chem. 251:2605-2610 (1976)). Incubations were conducted at 37° C. for 60 min and the Ki and 50% […] concentration (IC50) values were determined as described by Cheng, Y.-C. and Prusoff, W. H. (Biochem. Pharmacol. 22:3099-3108 (1976)).

[2] = molecular target: HSV-1 B3 dThd kinase (BVDU resistant variant) (Human alphaherpesvirus 1 strain SC16, UniProt P06479); test: dThd kinase assay in vitro, enzyme extracts; format: biochemical, HSV-1 (strain B3); settings: enzyme extracts of infected HeLa BU cells, 100 μM dThd
Method: as §1, §2

[3] = molecular target: HSV-1 (strain KOS) dThd kinase-associated dTMP kinase (Human alphaherpesvirus 1 strain KOS, UniProt P17402); test: dTMP (thymidylate) kinase assay, crude extracts; format: biochemical; settings: HSV-1 KOS
Method: The thymidylate kinase and synthase assays were performed according to known procedures (see, Cheng, Y.-C. & Prusoff, W. H. (1974) Anal. Biochem. 60:545-550; Roberts, D. (1966) Biochemistry 5:3546-3548; Dolnick, B. J. & Cheng, Y. C. (1977) J. Biol. Chem. 252:7697-7703). dThd phosphorylase activity was determined by monitoring conversion of [^14 C]dThd to [14 C] thymine using high performance liquid chromatography (HPLC). Briefly, after a 30 min incubation of enzyme extract with radiolabeled dThd at 37° C., the reaction was stopped by addition of 25% trichloroacetic acid. After neutralization and centrifugation, the supernatants were loaded on to an Alltech Lichrosorb RP-18 column, and the column was eluted at a rate of 1 ml/min with 5 mM KH2 PO4 (pH 3.5)--10% methanol. Fractions of 1 ml were collected and radioactivity associated with dThd and thymine (as previously determined by retention times of authentic markers measured by their absorbance at 265 nm) was measured by scintillation counting. For evaluation of whether 5'-Et-dThd could serve substrate for dThd phosphorylase, reactions were carried out as described as above, except that 5'-Et-dThd was used instead of [^14 C]dThd; metabolites were then analyzed by HPLC as described above.

[4] = molecular target: HSV-1 B3 dThd kinase in infected HeLa BU cells (Human alphaherpesvirus 1 strain SC16, UniProt P06479); test: Intracellular dThd kinase activity ([14C]dThd phosphorylation); format: cell-based, HSV-1 (strain B3); settings: intracellular [14C]dThd phosphorylation
Method: Intracellular dThd kinase activity. HeLa S3 or HeLa BU cells (1.5×10^6 /ml) were mock infected or infected with HSV-1 or HSV-2at 3 PFU/cell and incubated at 37° C. for a 1 h adsorption period. The medium was then removed, and the cells were washed with growth medium and resuspended at a cell density of 5×10^5 cells/ml in RPMI 1640 medium supplemented with kanamycin (100 μg/ml) and 5% dialyzed fetal bovine serum. At 9 h post-HSV infection, [14C]dThd (0.16 μCi/ml; 1 μM dThd) and different amounts of 5'-Et-dThd were added to the medium depending on experimental conditions. At the end of the labeling period (1 h), the cells were pelleted by centrifugation, washed with phosphate-buffered-saline (PBS) and resuspended in a small volume of PBS. Aliquots were then pipetted directly onto DE81 discs which were immediately washed in 100% EtOH. The DE81 discs were washed two additional times in 100% EtOH, and then radioactivity associated with the discs was measured by scintillation counting in 5 ml of aqueous counting fluid. In this manner, total intracellular dThd kinase activity was determined from the sum of radioactive acid soluble dThd nucleotides plus the acid insoluble dTMP associated with DNA, both precipitated directly on the DE81 discs.

[5] = tested on: virus DNA synthesis; test: Virus DNA synthesis, isopycnic centrifugation of 32PO4-labeled DNA; format: cell-based; settings: 5'-Et-dThd by itself; 32PO4-labeled virus DNA separated from host DNA
Description: By itself, 5'-Et-dThd had no effect on virus yield (Table II) and on virus DNA synthesis as determined from isopycnic centrifugation studies where ^32 PO4 -labeled virus DNA was separated from host DNA. Nucleoside analogs have been developed based on the "selective alternate substrate" strategy, and depend on viral dThd kinase for their antiviral activity. The effect of 5'-Et-dThd on the antiviral efficacy of five such analogs, ACV, 9-(1, 3-dihydroxy-2-propoxymethyl) guanine (DHPG), fluoroido-arabinosyl-cytosine (FIAC), BVDU and 5'-amino-dThd (5'-NH2 -dThd) has been examined. The effect of 5'-Et-dThd on the activity of the five agents was determined by the virus yield assay using HSV-1 (strain KOS)-infected HeLa BU cells. At 100 μM, 5'-Et-dThd reversed the antiviral activity of ACV (15 μM), DHPG (2 μM), FIAC (1 μM), BVDU (1 μM) and 5'-NH2 -dThd (500 μM)35-, 100-, 98-, 15- and 250-fold, respectively (Table II). […] The results further indicate that the use of 5'-Et-dThd in the prophylaxis/prevention of virus reactivation would require a sequential order when used with virus dThd kinase-dependent antiviral agents.

[6] = tested on: mammalian cell growth; test: Cell growth inhibition; format: cell-based
Method: Cell and virus growth inhibition. Cell growth inhibition and the virus yield assay were performed in accordance with the protocol described by Cheng, Y.-C., Grill, S.P., Ruth, J. and Bergstrom, D. E. (Antimicrob. Agents Chemother. 18:957-961 (1980)) with the exceptions that all studies were done using 5% dialyzed fetal bovine serum; the multiplicity of infection was 3 PFU/cell and Vero cells were used instead of CV-1 cells for titration in the virus yield assays.

## 5'-ethynylthymidine [5'-Et-dThd]
[1]
  IC50: 5 µM
[2]
  IC50: < 10 µM and 7 µM
[3]; 25 μM dTMP substrate
  IC50 of virus-associated dTMP kinase: 0.3 µM
[3]; 100 μM dTMP substrate
  IC50 of virus-associated dTMP kinase: 0.8 µM
[4]
  IC50: < 10 µM and 6 µM
[5]
  effect on virus DNA synthesis: no effect
[6]
  inhibition of mammalian cell growth: nor does the analog inhibit mammalian cell growth
